Assay results as given in patent publication US20220062247A1, “USE OF A PAR-1 ANTAGONIST FOR THE TREATMENT OF A CHRONIC INFLAMMATORY INTESTINAL DISEASE” (CVASTHERA, priority 2018, published 2022).

Key:
[1] = tested on: inflammatory bowel disease, Dextran Sulphate sodium (DSS); assay: Dextran Sulphate sodium (DSS) model of inflammatory bowel disease in mice (body weight, DAI, macroscopic damage score, MPO); assay type: in vivo, mice (C57B16); parameters: Disease activity index, D1 / Disease activity index, D2 / Disease activity index, D3 / Disease activity index, D4 / Disease activity index, D5 / Disease activity index, D6 / Disease activity index, D7 / macroscopic damage score: scale not given here
Description: The purpose of this study is to assess the effectiveness of a PAR-1 antagonist according to the invention, 3-2-(chloro-phenyl)-1-[4-(4-fluoro-benzyl)-piperazine-1-yl]propenone (CSI) in a model of an inflammatory bowel disease, Dextran Sulphate sodium (DSS) in mice. This DSS model is described in the publication of Choi et al., 2010, in J. Biomed. Biotechnol., 2010:943516; doi: 10.1155/2010/943516.
This model features a cytokine profile Th1 in its acute phase, periods of remission and relapses, it is consequently very similar to ulcerous colitis. The DSS distributed in the drinking water can cause an inflammation of the digestive tract and produce colorectal tumours in the rodent. The DSS is widely used as an animal model of human inflammatory diseases of the digestive tract.
The present study is conducted in 7-week-old mice (C57B16). The 5-aminosalicylic acid serves as a positive comparative example.
The first day of the study starts with the daily administration of a beverage containing DSS at 5% p/p in water to the mice, until the day of sacrifice. The development of the disease is estimated on a daily basis, with accurate weighting of the mice, the assessment of the consistence of the excrements as well as the presence of blood in the faeces with the Hemoccult® paper test. The DAI score is calculated as indicated in Example 1.
Each day, groups of mice receive per os CSI at different concentrations, or 5-aminosalicylic acid (5-ASA), or the vehicle alone, that is to say carboxymethyl cellulose (CMC) at 1%.
The mice are sacrificed 7 days after the beginning of the treatment. The colon is excised and the macroscopic damages are assessed. The colon is then cut into 4 pieces, the distal portion is placed in an Eppendorf tube and stored at −80° C. until the measurement of the activity of myeloperoxidase and the quantification of proteins. The proximal portion is kept in formaline at 10% for future histological analyses. The two other central portions are placed in Eppendorf tubes and stored at −80° C. for future analyses.
On day 7, after having sacrificed the animals, the colon is removed. The macroscopic damage score, assessed as described in Example 1, and the myeloperoxidase (MPO) activity are determined.

[2] = tested on: inflammatory bowel disease induced by 2,4,6-trinitrobenzenesulfonic acid (TNBS); assay: Colitis induced by intra-colonical TNBS in rats (body weight, DAI score, colon wall thickness, macroscopic damage score, MPO); assay type: in vivo, male laboratory rat of the Wistar strain
Description: The purpose of this study is to assess the effectiveness of two PAR-1 antagonists, vorapaxar and 3-2-(chloro-phenyl)-1-[4-(4-fluoro-benzyl)-piperazine-1-yl]propenone (hereinafter, referred to as CSI) in a model of an inflammatory bowel disease induced by 2,4,6-trinitrobenzenesulfonic acid (TNBS) in a male laboratory rat of the Wistar strain. This model is described in the publication of Whittle et al., 2003, in Methods Mol. Biol., 225, 209-222.
In this induced colitis model, the inflammatory reaction is measured every day and is well established 7 days after intra-colonical administration of TNBS.
(§1) Different parameters are measured: the weight of the rats, the presence of blood in the faeces and the diarrhoeas assessed by the disease activity index (DAI score), the intensity of pain (assessed by Von Frey filaments technique measured on days 3 and 7).
The rats are sacrificed 7 days after the beginning of the treatment and the macroscopic damages, the oedema and a marker of the inflammation, myeloperoxidase (MPO), are quantified.
The experiments with the PAR-1 antagonists are carried out in two studies, relating to vorapaxar and CSI, respectively.
The colitis is induced by intra-colonical administration of 2,4,6-trinitrobenzenesulfonic acid (TNBS) (30 mg of TNBS in 0.25 ml of a 50% ethanol/NaCl solution) via a catheter (polyethylene (PE)-60) inserted 8 cm proximally from the anus.
Four groups of 10 rats receive an intra-colonical administration of TNBS, as well as a per os treatment of vorapaxar at the dose of 2.5 mg/kg/day or of CSI at doses of 10 and 40 mg/kg/day or of prednisolone (a compound proposed by the prior art for the treatment of IBDs) at the dose of 3 mg/kg/day. The per os treatments start 1 h before the intra-colonical administration of TNBS.
As a negative comparative example, 1 group of 10 rats receives an intra-colonical administration of TNBS and of the vorapaxar vehicle (phosphate buffered saline—PBS) or of the CSI vehicle (carboxymethyl cellulose—CMC at 1%) per os daily.
Moreover, 1 group of 6 control rats receives an intra-colonical administration of NaCl instead of TNBS.
The DAI score is determined as follows. The development of the disease is estimated on a daily basis. The consistence of the excrements, as well as the presence of blood in the faeces assessed with the Hemoccult® paper test, are respectively quantified by the seriousness scales of Table 3 hereinbelow. The obtained values are added together to obtain the DAI score.
The macroscopic damage score is assessed according to the protocol described in the publication of Comera et al., 1999, Dig. Dis. Sci. 44: 1448-1457, as follows. On day 7 after induction of the colitis, the rats are sacrificed by carbon dioxide CO2 inhalation, the colon (from the anus to the Caecum) is removed and the macroscopic damages are assessed according to the parameters observed and presented in Table 4 hereinbelow, to determine the macroscopic damage score.

[3] = tested on: nociceptive response induced by TNBS; assay: Nociceptive response (allodynia) by Von Frey filaments technique in TNBS colitis rats; assay type: in vivo, rat; details: 3 mg/kg/day, 7 days after colitis induction
Protocol: as §1
The intensity of the pain is measured by the Von Frey filaments technique on days […], according to the protocol described in the publication of Auge et al., 2013, Eur. J. Pharmacol. 707: 32-40.
The effect on the nociceptive response, measured by Von Frey filaments technique according to the mass of Von Frey filaments, is shown in FIG. 10 for prednisolone and in FIG. 11 for vorapaxar.

[4] = DSS 5%, Group 5, 50 mg/kg/24 h per os, Moy
[5] = DSS mice, 50 mg/kg daily oral (Group 5), all observed points
[6] = DSS 5%, Group 2, 10 mg/kg/24 h per os, Moy
[7] = DSS 5%, Group 3, 40 mg/kg/24 h per os, Moy

In the case of `Nc1ccc(O)c(C(=O)O)c1` [5-ASA, 5-aminosalicylic acid, reference compound], the “Disease activity index, D1” value [1, 4] is reported as 1.64, the “Disease activity index, D2” value [1, 4] is reported as 1.25 and the “Disease activity index, D3” value [1, 4] is reported as 1.92. For the same molecule, the “Disease activity index, D4” value [1, 4] was 3.50, the “Disease activity index, D5” value [1, 4] was 4.00 and the “Disease activity index, D6” value [1, 4] was 4.00. For the same molecule, the “Disease activity index, D7” value [1, 4] was 3.20, the “Variation of the body weight of the mice in comparison with day D0, D1-D0” value (shortened to “Variation of the body weight of the mice … D1-D0”) [1, 4] was 0.64 g and the “Variation of the body weight of the mice in comparison with day D0, D2-D0” value (“Variation of the body weight of the mice … D2-D0” below) [1, 4] was 0.64 g. For the same molecule, the “Variation of the body weight of the mice in comparison with day D0, D3-D0” value (from here on “Variation of the body weight of the mice … D3-D0”) [1, 4] was 1.05 g, the “Variation of the body weight of the mice in comparison with day D0, D4-D0” value (shortened to “Variation of the body weight of the mice … D4-D0”) [1, 4] was -0.03 g and the “Variation of the body weight of the mice in comparison with day D0, D5-D0” value (“Variation of the body weight of the mice … D5-D0” below) [1, 4] was -1.67 g. The “Variation of the body weight of the mice in comparison with day D0, D6-D0” value (from here on “Variation of the body weight of the mice … D6-D0”) [1, 4] was -3.68 g, the “Variation of the body weight of the mice in comparison with day D0, D7-D0” value (shortened to “Variation of the body weight of the mice … D7-D0”) [1, 4] was -4.76 g and the macroscopic damage score ([1]; DSS 5%, Group 5, 50 mg/kg/24 h per os, day 7, Moy) was 6.5. For the same molecule, the MPO activity ([1]; DSS 5%, Group 5, 50 mg/kg/24 h per os, day 7, colon, Moy) was 9.34 mU/mg proteins, the macroscopic damage score ([1]; DSS mice, 50 mg/kg (Group 5), vs vehicle group (Group 4)) was “significantly reduces” and the “increase of the disease activity index” value [1, 5] was “prevents neither”. The weight loss [1, 5] was “prevents neither”.
`O=C(/C=C/c1ccccc1Cl)N1CCN(Cc2ccc(F)cc2)CC1` [CSI, 3-2-(chloro-phenyl)-1-[4-(4-fluoro-benzyl)-piperazine-1-yl]propenone] was tested, and the “disease activity index (DAI)” value ([2]; 10 mg/kg daily, 7th day) was “significantly reduces”, the MPO activity ([2]; 40 mg/kg/day, day 7) was “significantly reduced” and the macroscopic damage score ([2]; 10 and 40 mg/kg/day (tested doses), day 7, vs vehicle group) was “significantly reduces”. The “weight loss (body weight)” value ([2]; 10 or 40 mg/kg/day per os) was “alleviate”, the “Disease activity index, D1” value [1, 6] was 1.40 and the “Disease activity index, D2” value [1, 6] was 1.35. The “Disease activity index, D3” value [1, 6] was 2.00, the “Disease activity index, D4” value [1, 6] was 3.75 and the “Disease activity index, D5” value [1, 6] was 4.00. The “Disease activity index, D6” value [1, 6] was 4.00, the “Disease activity index, D7” value [1, 6] was 2.90 and the “Variation of the body weight of the mice … D1-D0” value [1, 6] was 0.67 g. For the same molecule, the “Variation of the body weight of the mice … D2-D0” value [1, 6] was 0.44 g, the “Variation of the body weight of the mice … D3-D0” value [1, 6] was 0.45 g and the “Variation of the body weight of the mice … D4-D0” value [1, 6] was -0.42 g. For the same molecule, the “Variation of the body weight of the mice … D5-D0” value [1, 6] was -2.15 g, the “Variation of the body weight of the mice … D6-D0” value [1, 6] was -3.79 g and the “Variation of the body weight of the mice … D7-D0” value [1, 6] was -5.19 g. For the same molecule, the macroscopic damage score ([1]; DSS 5%, Group 2, 10 mg/kg/24 h per os, day 7, Moy) was 5.2, the MPO activity ([1]; DSS 5%, Group 2, 10 mg/kg/24 h per os, day 7, colon, Moy) was 12.99 mU/mg proteins and the “Disease activity index, D1” value [1, 7] was 2.00. For the same molecule, the “Disease activity index, D2” value [1, 7] was 1.10, the “Disease activity index, D3” value [1, 7] was 1.50 and the “Disease activity index, D4” value [1, 7] was 2.80. For the same molecule, the “Disease activity index, D5” value [1, 7] was 4.00, the “Disease activity index, D6” value [1, 7] was 4.00 and the “Disease activity index, D7” value [1, 7] was 3.00. For the same molecule, the “Variation of the body weight of the mice … D1-D0” value [1, 7] was -0.08 g, the “Variation of the body weight of the mice … D2-D0” value [1, 7] was -0.07 g and the “Variation of the body weight of the mice … D3-D0” value [1, 7] was -0.19 g. The “Variation of the body weight of the mice … D4-D0” value [1, 7] was -0.68 g, the “Variation of the body weight of the mice … D5-D0” value [1, 7] was -1.07 g and the “Variation of the body weight of the mice … D6-D0” value [1, 7] was -2.69 g. For the same molecule, the “Variation of the body weight of the mice … D7-D0” value [1, 7] was -4.00 g, the macroscopic damage score ([1]; DSS 5%, Group 3, 40 mg/kg/24 h per os, day 7, Moy) was 4.0 and the MPO activity ([1]; DSS 5%, Group 3, 40 mg/kg/24 h per os, day 7, colon, Moy) was 6.9 mU/mg proteins. For the same molecule, the disease activity index ([1]; DSS mice, 10 mg/kg daily (Group 2), 7th day) was “significantly reduces”, the MPO activity ([1]; DSS mice, 40 mg/kg (Group 3)) was “strongly reduced” and the disease activity index ([1]; DSS mice, 40 mg/kg (Group 3), 4th and 7th day, vs vehicle group (Group 4)) was “significantly reduced”. The weight loss ([1]; DSS mice, 40 mg/kg (Group 3), 6th day) was “significantly reduces”, the “daily signs of colitis” value ([1]; DSS mice, 10 and 40 mg/kg, seems more effective than 5-ASA) was “reduces, significantly and in a dose-dependent way” and the macroscopic damage score ([1]; DSS mice, both tested doses 10 and 40 mg/kg (Groups 2 and 3), vs vehicle group (Group 4)) was “significantly reduces”.
`C[C@]12C=CC(=O)C=C1CC[C@@H]1[C@@H]2[C@@H](O)C[C@@]2(C)[C@H]1CC[C@]2(O)C(=O)CO` [prednisolone] was tested, and the “apparition of oedema (thickness of the wall of the colon)” value ([2]; 3 mg/kg daily oral, 7 days) was “does not prevent”, the “disease activity index (DAI)” value ([2]; 3 mg/kg daily oral, all observed points) was “does not prevent the increase” and the macroscopic damage score ([2]; 3 mg/kg, day 7, vs vehicle group) was “significantly reduces”. For the same molecule, the “weight loss (body weight)” value ([2]; 3 mg/kg/day per os) was “alleviate”, the MPO activity ([2]; 3 mg/kg/day, day 7, vs vehicle group) was “significantly reduce” and the “allodynia-type response (Von Frey)” value [3] was “only a partial inhibition”.
